Data: PMC10762035, “Molecular basis of human trace amine-associated receptor 1 activation” (Nature Communications, 2024)
Values joined by “and” are separate entries in the source; they are usually repeats but may differ in a detail not shown here. Equal entries are not always repeated. Structures can show the parent of a compound that is named as a salt.

Target: T1, hTA1 (Homo sapiens, UniProt Q96RJ0)
T1 construct: expressed in transfected cells; host or cells: HEK293T
T1 sequence (Q96RJ0 1-339): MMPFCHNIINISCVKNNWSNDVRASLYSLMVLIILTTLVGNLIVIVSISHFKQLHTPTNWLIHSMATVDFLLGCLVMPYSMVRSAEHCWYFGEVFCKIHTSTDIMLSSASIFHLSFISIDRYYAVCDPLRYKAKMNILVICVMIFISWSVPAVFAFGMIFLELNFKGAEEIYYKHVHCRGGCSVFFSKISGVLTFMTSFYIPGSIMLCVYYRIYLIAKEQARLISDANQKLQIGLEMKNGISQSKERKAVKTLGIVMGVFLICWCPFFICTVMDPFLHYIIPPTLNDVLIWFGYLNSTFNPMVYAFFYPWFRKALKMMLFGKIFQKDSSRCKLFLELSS
Assay: Screen of 89 aminergic compounds at 10 µM, cAMP accumulation in HEK293T cells;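 further: HEK293T cells co-transfected with hTA1 and GloSensor cAMP reporter, cAMP accumulation detected by luminescence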
Format: cell-based
Settings: for Luminescence for Screening Data: quadruplicate values, screen at 10 µM

SMILES	Luminescence for Screening Data	increase of signal over DMSO-treated controls (hTA1 activation) (10 µM of compound, HEK293T, threshold log2-fold change of 2)
Cl.O=C(c1ccc(F)cc1)C1CCN(CCn2c(=S)[nH]c3ccccc3c2=O)CC1 [Altanserin hydrochloride hydra]	9.1 and 6 and 8.8 and 5.9	
COc1cccc([C@H](O)C2CCN(CCc3ccc(F)cc3)CC2)c1OC [MDL 100907]	5.4 and 6.7 and 5.2 and 5.8	
O=c1c(O)c(-c2ccc(O)c(O)c2)oc2cc(O)cc(O)c12 [Quercetin]	31.9 and 24.7 and 28.4 and 23.7	
O=C1Cc2cc(CCN3CCN(c4nsc5ccccc45)CC3)c(Cl)cc2N1 [Ziprasidone]	5.8 and 4.8 and 5.4	
O=[N+]([O-])c1ccc(CSc2ncnc3c2ncn3[C@@H]2O[C@H](CO)[C@@H](O)[C@H]2O)cc1 [NBMPR]	6.9 and 7.3 and 6.6	
O=S1(=O)c2cccc3cccc(c23)N1CCCN1CCN(c2ccc(F)cc2)CC1 [Fananserin]	4.9 and 5 and 4.3 and 5.2	
N.N.[Cl][Pt][Cl] [Cisplatin]	5.8 and 6.4 and 6.9 and 6.2	
NCCc1ccccc1 [B-PEA]	160.4 and 164.2 and 180.4 and 167	
COc1ccc(CC2NCCc3c2[nH]c2ccc(C)cc32)c(Cl)c1OC.Cl (centres unmarked) [LY266097 hydrochloride]	5.6 and 6.8 and 5.3 and 5.9	
CN1CCC(c2c[nH]c3ccc(O)cc23)CC1 [BRL 54443]	10 and 7.1 and 8.1 and 6.4	
CN1CC2c3ccccc3Oc3ccc(Cl)cc3C2C1 (centres unmarked) [Asenapine maleate]	139.1 and 129.2 and 126.2 and 110.4	
CN1CCN(c2cccc3c(S(=O)(=O)c4ccccc4)c[nH]c23)CC1 [Ro4368554]	5.1 and 6 and 4.2 and 4.8	
COc1ccc(C(CN(C)C)C2(O)CCCCC2)cc1 (centres unmarked) [Venlafaxine]	6.7 and 7 and 6 and 6.5	
CN/C(=N/CCSCc1nc[nH]c1C)NC#N [Cimetidine]	8.3 and 6.6 and 8.6 and 5.4	
N=C(N)NC(=O)c1nc(Cl)c(N)nc1N [Amiloride]	9.5 and 8.8 and 7 and 8.1	
O=C1Nc2ccc(Cl)cc2[C@@](C#CC2CC2)(C(F)(F)F)O1 [Evafirenz]	3.7 and 4.1 and 4.4 and 4.6	
N#Cc1c[nH]c2c(C(=O)N3CCN(CCc4ccc(F)cc4)CC3)cccc12 [EMD281014]	4.2 and 3.9 and 4.4	
Fc1ccc2c(CCNCc3cccc(OCC(F)(F)C(F)F)c3)c[nH]c2c1 [LuAE58054]	7.5 and 10.3 and 7.4 and 7.7	
CS(=O)(=O)Nc1ccc(Cc2noc(-c3ccc4[nH]cc(CCN)c4c3)n2)cc1 [L694 247]	6.5 and 8.1 and 7.2	
CN(C)c1ccc(/C=C/c2cc[n+](C)cc2)cc1.[I-] [ASP-iodide]	6.9 and 6.2 and 4.9 and 4.4	
Cc1nc2sccn2c(=O)c1CCN1CCC(=C(c2ccc(F)cc2)c2ccc(F)cc2)CC1 [Ritanserin]	5.6 and 5.8 and 6.1 and 6.3	
O=C1CC[C@@]2(O)[C@H]3Cc4ccc(O)c5c4[C@@]2(CCN3CC2CC2)[C@H]1O5 [Naltrexone hydrochloride]	7.8 and 5.6 and 5.9 and 6.7	
Cc1[nH]c2ccc(Cl)cc2c1C1=CCNCC1 [EMD386088]	14.2 and 14.9 and 14.6 and 13.7	
CN1C[C@H](C(=O)N[C@]2(C)O[C@@]3(O)[C@@H]4CCCN4C(=O)[C@H](Cc4ccccc4)N3C2=O)C[C@@H]2c3cccc4[nH]cc(c34)C[C@H]21 [Dihydroergotamine mesylate]	25.4 and 24.7 and 32.7 and 26.9	
Cl.O=C1Nc2ccc(Cl)c3c2C1(CCCCN1CC=C(c2ccc(Cl)cc2)CC1)CCC3 (centres unmarked) [DR4485 hydrochloride]	5.6 and 5.7 and 6.4 and 4.9	
C=C[C@H]1C[N@@]2CC[C@H]1C[C@H]2[C@H](O)c1ccnc2ccc(OC)cc12 [Quinine sulfate]	7.1 and 8 and 6.1 and 7.2	

SMILES	Luminescence for Screening Data	increase of signal over DMSO-treated controls (hTA1 activation) (10 µM of compound, HEK293T, threshold log2-fold change of 2)
O=C(CCCN1CCC(O)(c2ccc(Cl)cc2)CC1)c1ccc(F)cc1 [Haloperidol]	7.4 and 8.8 and 6.8 and 6.9	
CNS(=O)(=O)Cc1ccc2[nH]cc(CCN(C)C)c2c1 [Sumatriptan]	6.2 and 7.3	
Cn1ccc2cc3c(cc21)CCN3C(=O)Nc1cccnc1 [SB206553]	5.8 and 7.8 and 6.3	
C=CCN1C[C@H](C(=O)N(CCCN(C)C)C(=O)NCC)C[C@@H]2c3cccc4[nH]cc(c34)C[C@H]21 [Cabergoline]	7.4 and 6.2 and 7 and 5.7	
COc1ccc(S(=O)(=O)Nc2cc(Cl)cc(Cl)c2OC)cc1N1CCNCC1 [SB399885]	6.4 and 5.8 and 6.1 and 6.2	
CC(C)[C@@]1(NC(=O)[C@@H]2C[C@@H]3c4cccc5[nH]cc(c45)C[C@H]3N(C)C2)O[C@@]2(O)[C@@H]3CCCN3C(=O)[C@H](Cc3ccccc3)N2C1=O [Dihydroergocristine mesylate]	5.9 and 6.4 and 5.1 and 5.2	
O=C(CCCN1CCC2(CC1)C(=O)NCN2c1ccccc1)c1ccc(F)cc1 [Spiperone]	6.2 and 8.3 and 7.1 and 6.7	
CSc1ccc2c(c1)C(N1CCN(C)CC1)Cc1ccccc1S2 (centres unmarked) [Methiothepin]	2.6 and 3.3 and 3 and 3.4	
C/C=C(/C)C(=O)O[C@H]1C(C)=C2[C@H]([C@@H]1OC(=O)CCCCCCC)[C@@](C)(OC(C)=O)C[C@H](OC(=O)CCC)[C@@]1(O)[C@H]2OC(=O)[C@@]1(C)O [Thapsigargin]	6.1 and 7.3 and 5.8 and 7.7	
O=C(c1ccc(F)cc1)C1CCN(CCn2c(=O)[nH]c3ccccc3c2=O)CC1 [Ketanserin]	6.8 and 5.5 and 5.4 and 3.9	
Cl.N#Cc1ccc(N2CCN(C(=O)COc3ccc4[nH]cc(CCN)c4c3)CC2)cc1 [Donitriptan hydrochloride]	9.4 and 7.6 and 8.3 and 7.4	
CNCCCN1c2ccccc2CCc2ccccc21 [Desipramine]	6 and 6.2 and 5.6 and 6.1	
CCN1CCCC1CNC(=O)c1cc(S(=O)(=O)CC)c(N)cc1OC (centres unmarked) [Amisulpride]	8 and 6.7 and 8.1 and 7	
CN1CCC(C(=O)c2cccc(NC(=O)c3c(F)cc(F)cc3F)n2)CC1 [Lasmitidan]	5.8 and 6.4 and 6.2 and 4.1	
CC(C)c1cc(-c2ccc(F)c3ccccc23)nc(N)n1 [RS 127445]	10.7 and 5.8 and 6.4 and 7	
CN1CCC(c2cn(C)c3ccc(OS(=O)(=O)c4c(F)cccc4F)cc23)CC1.O=C(O)C(=O)O [SGS 518 oxalate]	6.7 and 6.8 and 8	
COc1cc2nc(N3CCN(C(=O)c4ccco4)CC3)nc(N)c2cc1OC [Prazosin hydrochloride]	6.6 and 6.4 and 6.7 and 7.2	
NCCc1c[nH]cn1 [histamine]	13.5 and 15.3 and 16.1 and 15.1	≥ 4 fold
CC1CCN(CC[C@H]2CCCN2S(=O)(=O)c2cccc(O)c2)CC1 [SB269970]	7.2 and 7 and 6.5	
CCN1CCC[C@H]1CNC(=O)c1c(O)c(Cl)cc(Cl)c1OC [Raclopride]	4.1 and 6.9 and 6.4 and 5	
Cc1nn(C)c(C)c1-c1cccc2c1CC[C@H](N(C)C)C2 [AS19]	9.8 and 9.9 and 8 and 6.8	
Cc1nc2n(c(=O)c1CCN1CCC(c3noc4cc(F)ccc34)CC1)CCCC2 [Risperidone]	6.7 and 6 and 6.8 and 7	
Cl.O=c1[nH]oc2c1CCNC2 [Gaboxadol HCl]	7 and 8.2 and 5.3 and 6.3	
O=C1NCCN1CCN1CCC(c2cn(-c3ccc(F)cc3)c3ccc(Cl)cc23)CC1 [Sertindole]	7.6 and 9 and 6.3	
NCCc1c[nH]c2ccc(O)cc12 [Serotonin Hydrochloride]	29.3	
COC(=O)[C@H]1[C@H]2C[C@H]3c4[nH]c5ccccc5c4CCN3C[C@H]2CC[C@@H]1O [Rauwolscine hydrochloride]	6.9 and 7.7 and 6.8	
